Structures can show the parent of a compound that is named as a salt.
Experiment: lipophilicity profile
Format: physicochemical
Settings: neutral pH values versus acidic pH values
Description: Usually, EC/HPMC films show sustained release behavior more or less independent of pH. […] This, together with the coating applied, is expected to result in a slower release at neutral pH values, sufficient to use the respective multi-layered particles for the application of this drug for the treatment of animals like cats.

For `COc1ccc(CCN2CCC[C@H](CN3CCc4cc(OC)c(OC)cc4CC3=O)C2)cc1OC` [cilobradine hydrochloride], the lipophilicity was “slightly more lipophilic at neutral pH values than at acidic pH values”.

Reference: patent publication US20140224680A1, “KIT-OF-PARTS” (BOEHRINGER INGELHEIM VETMEDICA GMBH, priority 2013, published 2014)
